Tests used:
Type in all cases: functional
SK-MEL-2 = assay: Cytotoxicity against Homo sapiens (human) SK-MEL-2 cells assessed as growth inhibition at 10 uM after 48 hr by coulter counter analysis; details: SK-MEL-2, 48 h, read-out: GI
MDA-MB-435 = assay: Cytotoxicity against Homo sapiens (human) MDA-MB-435 cells assessed as growth inhibition at 10 uM after 48 hr by coulter counter analysis; details: MDA-MB-435, 48 h, read-out: GI
M14 = assay: Cytotoxicity against Homo sapiens (human) M14 cells assessed as growth inhibition at 10 uM after 48 hr by coulter counter analysis; details: M14, 48 h, read-out: GI
SNB-75 = assay: Cytotoxicity against Homo sapiens (human) SNB75 cells assessed as growth inhibition at 10 uM after 48 hr by coulter counter analysis; details: SNB-75, 48 h, read-out: GI
SF-539 = assay: Cytotoxicity against Homo sapiens (human) SF539 cells assessed as growth inhibition at 10 uM after 48 hr by coulter counter analysis; details: SF-539, 48 h, read-out: GI
SF-295 = assay: Cytotoxicity against Homo sapiens (human) SF295 cells assessed as growth inhibition at 10 uM after 48 hr by coulter counter analysis; details: SF-295, 48 h, read-out: GI
OVCAR-3 = assay: Cytotoxicity against Homo sapiens (human) OVCAR3 cells assessed as growth inhibition at 10 uM after 48 hr by coulter counter analysis; details: OVCAR-3, 48 h, read-out: GI
IGROV-1 = assay: Cytotoxicity against Homo sapiens (human) IGROV1 cells assessed as growth inhibition at 10 uM after 48 hr by coulter counter analysis; details: IGROV-1, 48 h, read-out: GI
SK-MEL-5 = assay: Cytotoxicity against Homo sapiens (human) SK-MEL-5 cells assessed as growth inhibition at 10 uM after 48 hr by coulter counter analysis; details: SK-MEL-5, 48 h, read-out: GI
MDA-MB-468 = assay: Cytotoxicity against Homo sapiens (human) MDA-MB-468 cells assessed as growth inhibition at 10 uM after 48 hr by coulter counter analysis; details: MDA-MB-468, 48 h, read-out: GI
T47D = assay: Cytotoxicity against Homo sapiens (human) T47D cells assessed as growth inhibition at 10 uM after 48 hr by coulter counter analysis; details: read-out: GI
MCF7 = assay: Cytotoxicity against Homo sapiens (human) MCF7 cells assessed as growth inhibition at 10 uM after 48 hr by coulter counter analysis; details: MCF7, 48 h, read-out: GI
PC-3 = assay: Cytotoxicity against Homo sapiens (human) PC3 cells assessed as growth inhibition at 10 uM after 48 hr by coulter counter analysis; details: PC-3, 48 h, read-out: GI
DU-145 = assay: Cytotoxicity against Homo sapiens (human) DU145 cells assessed as growth inhibition at 10 uM after 48 hr by coulter counter analysis; details: DU-145, 48 h, read-out: GI
TK-10 = assay: Cytotoxicity against Homo sapiens (human) TK10 cells assessed as growth inhibition at 10 uM after 48 hr by coulter counter analysis; details: TK-10, 48 h, read-out: GI
SN12C = assay: Cytotoxicity against Homo sapiens (human) SN12C cells assessed as growth inhibition at 10 uM after 48 hr by coulter counter analysis; details: read-out: GI
ACHN = assay: Cytotoxicity against Homo sapiens (human) ACHN cells assessed as growth inhibition at 10 uM after 48 hr by coulter counter analysis; details: read-out: GI
786-0 = assay: Cytotoxicity against Homo sapiens (human) 786-0 cells assessed as growth inhibition at 10 uM after 48 hr by coulter counter analysis; details: 786-0, 48 h, read-out: GI
A498 = assay: Cytotoxicity against Homo sapiens (human) A498 cells assessed as growth inhibition at 10 uM after 48 hr by coulter counter analysis; details: A498, 48 h, read-out: GI
SK-OV-3 = assay: Cytotoxicity against Homo sapiens (human) SKOV3 cells assessed as growth inhibition at 10 uM after 48 hr by coulter counter analysis; details: SK-OV-3, 48 h, read-out: GI
OVCAR-5 = assay: Cytotoxicity against Homo sapiens (human) OVCAR5 cells assessed as growth inhibition at 10 uM after 48 hr by coulter counter analysis; details: OVCAR-5, 48 h, read-out: GI
HL-60(TB) = assay: Cytotoxicity against Homo sapiens (human) HL-60(TB) cells assessed as growth inhibition at 10 uM after 48 hr by coulter counter analysis; details: HL-60, 48 h, read-out: GI
SF-268 = assay: Cytotoxicity against Homo sapiens (human) SF268 cells assessed as growth inhibition at 10 uM after 48 hr by coulter counter analysis; details: SF-268, 48 h, read-out: GI
HT-29 = assay: Cytotoxicity against Homo sapiens (human) HT-29 cells assessed as growth inhibition at 10 uM after 48 hr by coulter counter analysis; details: HT-29, 48 h, read-out: GI
HCT-15 = assay: Cytotoxicity against Homo sapiens (human) HCT15 cells assessed as growth inhibition at 10 uM after 48 hr by coulter counter analysis; details: HCT-15, 48 h, read-out: GI
HCC 2998 = assay: Cytotoxicity against Homo sapiens (human) HCC2998 cells assessed as growth inhibition at 10 uM after 48 hr by coulter counter analysis; details: HCC 2998, 48 h, read-out: GI
COLO 205 = assay: Cytotoxicity against Homo sapiens (human) COLO205 cells assessed as growth inhibition at 10 uM after 48 hr by coulter counter analysis; details: COLO 205, 48 h, read-out: GI
NCI-H23 = assay: Cytotoxicity against Homo sapiens (human) NCI-H23 cells assessed as growth inhibition at 10 uM after 48 hr by coulter counter analysis; details: NCI-H23, 48 h, read-out: GI
NCI-H226 = assay: Cytotoxicity against Homo sapiens (human) NCI-H226 cells assessed as growth inhibition at 10 uM after 48 hr by coulter counter analysis; details: NCI-H226, 48 h, read-out: GI
HOP-92 = assay: Cytotoxicity against Homo sapiens (human) HOP92 cells assessed as growth inhibition at 10 uM after 48 hr by coulter counter analysis; details: HOP-92, 48 h, read-out: GI
EKVX = assay: Cytotoxicity against Homo sapiens (human) EKVX cells assessed as growth inhibition at 10 uM after 48 hr by coulter counter analysis; details: read-out: GI
RPMI-8226 = assay: Cytotoxicity against Homo sapiens (human) RPMI8226 cells assessed as growth inhibition at 10 uM after 48 hr by coulter counter analysis; details: RPMI-8226, 48 h, read-out: GI
MOLT-4 = assay: Cytotoxicity against Homo sapiens (human) MOLT4 cells assessed as growth inhibition at 10 uM after 48 hr by coulter counter analysis; details: MOLT-4, 48 h, read-out: GI
BT-549 = assay: Cytotoxicity against Homo sapiens (human) BT549 cells assessed as growth inhibition at 10 uM after 48 hr by coulter counter analysis; details: BT-549, 48 h, read-out: GI

Compound	inhibition of growth at 10 µM (SK-MEL-2)	inhibition of growth at 10 µM (MDA-MB-435)	inhibition of growth at 10 µM (M14)	inhibition of growth at 10 µM (SNB-75)	inhibition of growth at 10 µM (SF-539)	inhibition of growth at 10 µM (SF-295)	inhibition of growth at 10 µM (OVCAR-3)	inhibition of growth at 10 µM (IGROV-1)	inhibition of growth at 10 µM (SK-MEL-5)	inhibition of growth at 10 µM (MDA-MB-468)	inhibition of growth at 10 µM (T47D)	inhibition of growth at 10 µM (MCF7)	inhibition of growth at 10 µM (PC-3)	inhibition of growth at 10 µM (DU-145)	inhibition of growth at 10 µM (TK-10)	inhibition of growth at 10 µM (SN12C)	inhibition of growth at 10 µM (ACHN)	inhibition of growth at 10 µM (786-0)	inhibition of growth at 10 µM (A498)	inhibition of growth at 10 µM (SK-OV-3)	further results
COc1ccc(-c2nc3c(c(=O)[nH]2)C(c2ccc(OC)c(OC)c2)C2=C(CCCC2)N3)cc1OC (stereo not given)	< 10%	< 10%	< 10%	22.6%	14.5%	< 10%	< 10%	< 10%	18.6%	28.5%	28.3%	34.3%	17.1%	< 10%	< 10%	15%	28.8%	< 10%	< 10%	< 10%	inhibition of growth at 10 µM (OVCAR-5): < 10%; inhibition of growth at 10 µM (HL-60(TB)): < 10%; inhibition of growth at 10 µM (SF-268): 12.2%; inhibition of growth at 10 µM (HT-29): < 10%; inhibition of growth at 10 µM (HCT-15): 10.7%; inhibition of growth at 10 µM (HCC 2998): < 10%; inhibition of growth at 10 µM (COLO 205): 10.3%; inhibition of growth at 10 µM (NCI-H23): < 10%; inhibition of growth at 10 µM (NCI-H226): 13.3%; inhibition of growth at 10 µM (HOP-92): 26.3%; inhibition of growth at 10 µM (EKVX): < 10%; inhibition of growth at 10 µM (RPMI-8226): 10.8%; inhibition of growth at 10 µM (MOLT-4): < 10%
Oc1ccc(-c2nc3c4c(ncn3n2)NC2=C(CCCC2)C4c2ccc(Cl)cc2)cc1 (stereo not given)	< 10%	< 10%	< 10%	20.5%	< 10%	< 10%	< 10%	< 10%	< 10%	< 10%	15.8%	< 10%	10.4%	< 10%	< 10%	< 10%	< 10%	< 10%	25.1%	< 10%	inhibition of growth at 10 µM (BT-549): < 10%; inhibition of growth at 10 µM (OVCAR-5): < 10%; inhibition of growth at 10 µM (HL-60(TB)): 13.5%; inhibition of growth at 10 µM (SF-268): < 10%; inhibition of growth at 10 µM (HT-29): < 10%; inhibition of growth at 10 µM (HCT-15): < 10%; inhibition of growth at 10 µM (HCC 2998): < 10%; inhibition of growth at 10 µM (COLO 205): < 10%; inhibition of growth at 10 µM (NCI-H23): 12.9%; inhibition of growth at 10 µM (NCI-H226): < 10%; inhibition of growth at 10 µM (HOP-92): 42.1%; inhibition of growth at 10 µM (EKVX): < 10%; inhibition of growth at 10 µM (RPMI-8226): 13.2%; inhibition of growth at 10 µM (MOLT-4): < 10%
COc1ccc(C2C3=C(CCCC3)Nc3ncn4nc(-c5ccccc5)nc4c32)cc1OC (stereo not given)	< 10%	< 10%	< 10%	< 10%	< 10%	29.6%	< 10%	< 10%	< 10%	23.2%	26.2%	< 10%	19.8%	< 10%	< 10%	< 10%	20%	< 10%	53.6%	< 10%	inhibition of growth at 10 µM (BT-549): < 10%; inhibition of growth at 10 µM (OVCAR-5): 11.7%; inhibition of growth at 10 µM (HL-60(TB)): < 10%; inhibition of growth at 10 µM (SF-268): < 10%; inhibition of growth at 10 µM (HT-29): < 10%; inhibition of growth at 10 µM (HCT-15): 13.1%; inhibition of growth at 10 µM (HCC 2998): < 10%; inhibition of growth at 10 µM (COLO 205): < 10%; inhibition of growth at 10 µM (NCI-H23): 10.7%; inhibition of growth at 10 µM (NCI-H226): 19.6%; inhibition of growth at 10 µM (HOP-92): 36.8%; inhibition of growth at 10 µM (EKVX): 11%; inhibition of growth at 10 µM (RPMI-8226): 10.5%; inhibition of growth at 10 µM (MOLT-4): 19.8%
COc1ccc(C2C3=C(CCCC3)Nc3ncn4nc(-c5ccc(O)cc5)nc4c32)cc1OC (stereo not given)	< 10%	< 10%	< 10%	19.1%	< 10%	< 10%	< 10%	< 10%	23.2%	21.4%	18.8%	< 10%	< 10%	< 10%	< 10%	< 10%	< 10%	< 10%	< 10%	< 10%	inhibition of growth at 10 µM (BT-549): < 10%; inhibition of growth at 10 µM (OVCAR-5): < 10%; inhibition of growth at 10 µM (HL-60(TB)): < 10%; inhibition of growth at 10 µM (SF-268): < 10%; inhibition of growth at 10 µM (HT-29): < 10%; inhibition of growth at 10 µM (HCT-15): < 10%; inhibition of growth at 10 µM (HCC 2998): < 10%; inhibition of growth at 10 µM (COLO 205): < 10%; inhibition of growth at 10 µM (NCI-H23): < 10%; inhibition of growth at 10 µM (NCI-H226): 15.3%; inhibition of growth at 10 µM (HOP-92): 12.2%; inhibition of growth at 10 µM (EKVX): < 10%; inhibition of growth at 10 µM (RPMI-8226): < 10%; inhibition of growth at 10 µM (MOLT-4): 12.3%

Source: ChEMBL document CHEMBL3045802, “Synthesis and in vitro antitumor activity of new quinoline, pyrimido[4,5-b]quinoline, [1,2,3]triazino[4,5-b]quinoline, and [1,2,4]triazolo[2,3:3,4]pyrimido[6,5-b]quinoline analogs” (2013)
